Results from US8673910B2, “Proteasome inhibitors for selectively inducing apoptosis in cancer cells” (H. Lee Moffitt Cancer Center and Research Institute, priority 2008, dated 2014).
Read-outs that look alike come from different tables or passages of the source.

Assays:
[1] = target: T1, CT-L activity of the proteasome in MCF-7 human breast cancer cells (Homo sapiens, UniProt P20618+P28074); experiment: Proteolytic activity in cell lysates of treated intact MCF-7 cells; assay type: cell-based; details: intact cells treated 16 h, CT-L measured in cell lysates; two determinations where two values
T1 construct: endogenous in cells; host or cells: MCF-7
Procedure: Human MCF-7 breast cancer cells were cultured in DMEM medium containing 10% fetal calf serum (FCS) and 100 units/ml of penicillin and 100 μg/ml of streptomycin. Cells were maintained at 37° C. in a humidified incubator in an atmosphere of 5% CO2. Cells were treated with different concentrations of PI-083, YG1-080, YG1-075, HL2-090-2, HL2-090-4, HL2-090-6, and HL2-090-9 or vehicle control (DMSO) for 16 h.
Intact cells were treated with compounds and lysates prepared as described above. Cell lysates (5 μg) was incubated with 20 μM Suc-Leu-Leu-Val-Tyr-AMC for the CT-L activity for 1 h at 37° C. in 100 μl of assay buffer (50 mM Tris-HCl, pH 7.6). After incubation, production of hydrolyzed 7-amido-4-methyl-coumarin (AMC) groups was measured using a WALLAC Victor^2 1420 Multilabel Counter with an excitation filter of 355 nm and an emission filter of 460 nm (Perkin Elmer Life Sciences, Turku, Finland).

[2] = target: T2, chymotrypsin-like (CT-L) activity of purified 20S rabbit proteasome (Oryctolagus cuniculus, UniProt G1T4Q9); experiment: Proteolytic activity of purified 20S proteasome, fluorogenic substrate Suc-Leu-Leu-Val-Tyr-AMC; assay type: biochemical; details: for IC50 / proteasome (chymotrypsin-like) inhibitory activity, in words: purified rabbit 20S proteasome; for decrease of proteasome inhibition activity relative to comparator compound: 14u, 14v vs linear acetic acid analogues, 14q vs lead compound 10a
T2 sequence (G1T4Q9 1-263): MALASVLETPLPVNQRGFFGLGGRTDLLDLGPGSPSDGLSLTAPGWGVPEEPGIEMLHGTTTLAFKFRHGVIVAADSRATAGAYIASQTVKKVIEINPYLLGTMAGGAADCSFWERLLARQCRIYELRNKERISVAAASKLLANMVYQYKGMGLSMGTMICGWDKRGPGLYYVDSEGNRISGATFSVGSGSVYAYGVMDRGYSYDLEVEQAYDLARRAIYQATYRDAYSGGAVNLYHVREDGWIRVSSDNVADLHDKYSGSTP
Procedure: The inhibitory activity of the compounds was calculated based on vehicle control). This technique monitors the hydrolytic release of a coumarin species from a synthetic peptide substrate.
The assay was conducted by using a fluorogenic peptide as substrate to test synthesized compounds for inhibitory activity against the chymotrypsin-like activity of the purified rabbit 20S proteasome. Briefly, 70 ng of purified 20S proteasome was incubated with 20 μM Suc-Leu-Leu-Val-Tyr-AMC for 1 hour at 37° C. in 100 μl of assay buffer (50 mM Tris-HCl, pH 7.6) with or without inhibitors. After incubation, production of hydrolyzed 7-amido-4-methyl-coumarin (AMC) was measured using a WALLAC Victor2 1420 Multilabel Counter with an excitation filter of 355 nm and an emission filter of 460 nm (Perkin Elmer Life Sciences, Turku, Finland). The inhibitory activity of the compounds was calculated based on vehicle control.

[3] = test system: MCF-7 breast cancer cells; experiment: MTT metabolism assay; assay type: cell-based, human; details: MCF-7, 72 h (Table 6), read-out: IC50 for cell viability measured by MTT assay in MCF-7 human breast cancer cells
Procedure: Cells were plated in 96-well plates in 100 μl medium and allowed to attach overnight. […] Media was aspirated after 24 or 72 hours and replaced with 100 μl complete media containing 1 mg/ml MTT and incubated for three hours at 37° C. in 5% CO2 humidified incubator. Media was then aspirated and DMSO was added. Cells were incubated for 10 min at room temperature while shaking, and the absorbance was determined at 540 nm using a μQuant spectrophotometric plate reader (Bio-TEK, Winooski, Vt.).
Cells were plated in 96-well plates in 100 μl medium and allowed to attach overnight. Cells were then incubated for 72 h with varying concentrations of PI-083, YG1-080, YG1-075, HL2-090-2, HL2-090-4, HL2-090-6, and HL2-090-9 or vehicle control (DMSO). Media was aspirated and replaced with 100 μl complete media containing 1 mg/ml MTT and incubated for three hours at 37° C. in 5% CO2 humidified incubator. Media was then aspirated and DMSO was added. Cells were incubated for 10 min at room temperature while shaking, and the absorbance was determined at 540 nm using a μQuant spectrophotometric plate reader (Bio-TEK, Winooski, Vt.).

[4] = PI-083 derivatives (Table 7, naphthoquinone library), read-out: IC50 (μM) Chymotrypsin-like activity
[5] = hydronaphthoquinone sulfonamides (Table 9), read-out: IC50 (μM), inhibition of chymotrypsin-like activity

Row | SMILES | proteasome (chymotrypsin-like) inhibitory activity, in words [2] | IC50 [2, 5] [µM] | also measured
1 | O=C1C(Cl)=C(Nc2ccc(S(=O)(=O)Nc3cnn(-c4ccccc4)c3)cc2)C(=O)c2ccccc21 [Compound 2b, 4-(3-chloro-1,4-dioxo-1,4-dihydronaphthalen-2-ylamino)-N-(1-phenyl-1H-pyrazol-4-yl)benzenesulfonamide] | – | – | melting point: 230 to 231 °C; IC50 [1]: > 10 µM; IC50 [2, 4]: 7.4 µM
2 | Cc1cc(NS(=O)(=O)c2ccc(NC3=C(Cl)C(=O)c4ccccc4C3=O)cc2)no1 [Compound 2d, 4-(3-chloro-1,4-dioxo-1,4-dihydronaphthalen-2-ylamino)-N-(5-methylisoxazol-3-yl)benzenesulfonamide] | – | – | melting point: 215 to 217 °C; IC50 [1]: > 10 µM; IC50 [2, 4]: 5.9 µM
3 | Cc1nnc(NS(=O)(=O)c2ccc(NC3=C(Cl)C(=O)c4ccccc4C3=O)cc2)s1 [Compound 2f, 4-(3-chloro-1,4-dioxo-1,4-dihydronaphthalen-2-ylamino)-N-(5-methyl-1,3,4-thiadiazol-2-yl)benzenesulfonamide] | – | – | melting point: 220 °C (dec.); IC50 [1]: > 10 µM; IC50 [2, 4]: 3.9 µM
4 | Cc1noc(NS(=O)(=O)c2ccc(NC3=C(Cl)C(=O)c4ccccc4C3=O)cc2)c1C [Compound 2h, 4-(3-chloro-1,4-dioxo-1,4-dihydronaphthalen-2-ylamino)-N-(3,4-dimethylisoxazol-yl)-benzenesulfonamide] | – | – | melting point: 208 to 210 °C; IC50 [1]: > 10 µM; IC50 [2, 4]: 6.4 µM
5 | O=C1C(Cl)=C(Nc2ccc(S(=O)(=O)Nc3nccs3)cc2)C(=O)c2ccccc21 [Compound 2s, 4-(3-chloro-1,4-dioxo-1,4-dihydronaphthalen-2-ylamino)-N-(thiazol-2-yl)benzene-sulfonamide] | – | – | melting point: 286 to 288 °C; IC50 [1]: > 10 µM; IC50 [2, 4]: 3.3 µM
6 | O=S(=O)(Nc1ccc(O)c2ccccc12)c1cccs1 [Compound 3, N-(4-hydroxynaphthalen-1-yl)thiophene-2-sulfonamide] | loss of the inhibitory activity | – | –
7 | CCOC(=O)CSc1cc(NS(=O)(=O)c2cccs2)c2ccccc2c1O [Compound 9a, Ethyl 2-(1-hydroxy-4-(thiophene-2-sulfonamido)naphthalen-2-ylthio)acetate] | – | 7.33 ± 2.82 | –
8 | COC(=O)CCSc1cc(NS(=O)(=O)c2cccs2)c2ccccc2c1O [Compound 9b, Methyl 3-(1-hydroxy-4-(thiophene-2-sulfonamido)naphthalen-2-ylthio)propanoate] | – | 4.99 ± 2.08 | –
9 | CCOC(=O)CSc1cc(NS(=O)(=O)c2ccccc2)c2ccccc2c1O [Compound 9c, Ethyl 2-(1-hydroxy-4-(phenylsulfonamido)naphthalen-2-ylthio)acetate] | – | 5.27 ± 2.23 | –
10 | CCOC(=O)CSc1cc(NS(=O)(=O)c2ccc([N+](=O)[O-])cc2)c2ccccc2c1O [Compound 9e, Ethyl 2-(1-hydroxy-4-(4-nitrophenylsulfonamido)naphthalen-2-ylthio)acetate] | – | 3.57 ± 1.53 | –
11 | O=C(O)CSc1cc(NS(=O)(=O)c2cccs2)c2ccccc2c1O [Compound 10a, 2-(1-hydroxy-4-(thiophene-2-sulfonamido)naphthalen-2-ylthio)acetic acid] | comparable proteasome inhibition activity to the commercial sample HLM-008182 | 1.3 ± 0.76 | IC50 ([2]; hydronaphthoquinone sulfonamides (Table 9), listed as HLM-008182, read-out: IC50 (μM), inhibition of chymotrypsin-like activity): 0.65 ± 0.4 µM; IC50 ([3]; Homo sapiens, MCF7, 72 h): 7.67 ± 1.61 µM; IC50 [3]: 10.9 ± 2.77 µM
12 | O=C(O)CCSc1cc(NS(=O)(=O)c2cccs2)c2ccccc2c1O [Compound 10b, 3-(1-hydroxy-4-(thiophene-2-sulfonamido)naphthalen-2-ylthio)propanoic acid] | – | > 10 | –
13 | O=C(O)COc1cc(NS(=O)(=O)c2cccs2)c2ccccc2c1O [Compound 10d, 2-(1-hydroxy-4-(thiophene-2-sulfonamido)naphthalen-2-yloxy)acetic acid] | diminished the inhibitory activity | – | –
14 | O=C(O)CS(=O)(=O)c1cc(NS(=O)(=O)c2cccs2)c2ccccc2c1O [Compound 10f, 2-(1-hydroxy-4-(thiophene-2-sulfonamido)naphthalen-2-ylsulfonyl)acetic acid] | diminished the inhibitory activity | – | –
15 | Cn1nnnc1Sc1cc(NS(=O)(=O)c2cccs2)c2ccccc2c1O [Compound 14d, N-(4-hydroxy-3-(1-methyl-1H-tetrazol-5-ylthio)naphthalen-1-yl)thiophene-2-sulfonamide] | comparable inhibition potency against proteasome to the lead compound | 4.25 ± 2.13 | –
16 | O=S(=O)(Nc1cc(Sc2ncn[nH]2)c(O)c2ccccc12)c1cccs1 [Compound 14e, N-(3-(1H-1,2,4-triazol-5-ylthio)-4-hydroxynaphthalen-1-yl)thiophene-2-sulfonamide] | comparable inhibition potency against proteasome to the lead compound | – | –
17 | CCSc1cc(NS(=O)(=O)c2cccs2)c2ccccc2c1O [Compound 14j, N-(3-(ethylthio)-4-hydroxynaphthalen-1-yl)thiophene-2-sulfonamide] | the inhibitory activity totally lost | – | –
18 | O=S(=O)(Nc1cc(SCCO)c(O)c2ccccc12)c1cccs1 [Compound 14k, N-(4-hydroxy-3-(2-hydroxyethylthio)naphthalen-1-yl)thiophene-2-sulfonamide] | the inhibitory activity totally lost | – | –
19 | COC(=O)CCSc1cc(NS(=O)(=O)c2cc(Cl)c(Cl)s2)c2ccccc2c1O [Compound 14m, Methyl-3-(4-(4,5-dichlorothiophene-2-sulfonamido)-1-hydroxynaphthalen-2-ylthio)propanoate] | – | 1.18 ± 0.3 | –
20 | O=C(O)CSc1cc(NS(=O)(=O)c2cc(Cl)c(Cl)s2)c2ccccc2c1O [Compound 14n, 2-(4-(4,5-dichlorothiophene-2-sulfonamido)-1-hydroxynaphthalen-2-ylthio)acetic acid] | – | 2.07 ± 0.55 | –
21 | O=C(O)CSc1cc(NS(=O)(=O)c2ccc(Cl)cc2)c2ccccc2c1O [Compound 14p, 2-(4-(4-chlorophenylsulfonamido)-1-hydroxynaphthalen-2-ylthio)acetic acid] | – | 3.75 ± 0.3 | –
22 | O=C(O)CSc1cc(NS(=O)(=O)c2ccc3ccccc3c2)c2ccccc2c1O [Compound 14q, 2-(1-hydroxy-4-(naphthalene-2-sulfonamido)naphthalen-2-ylthio)acetic acid] | – | 4.83 ± 0.79 | decrease of proteasome inhibition activity relative to comparator compound [2]: 3 fold
23 | O=C(O)c1ccccc1Sc1cc(NS(=O)(=O)c2ccc(-c3ccccc3)cc2)c2ccccc2c1O [Compound 14t, 2-(4-(biphenyl-4-ylsulfonamido)-1-hydroxynaphthalen-2-ylthio)benzoic acid] | – | 2.19 ± 0.23 | –
24 | CC(Sc1cc(NS(=O)(=O)c2ccc(Cl)cc2)c2ccccc2c1O)C(=O)O (stereo not shown) [Compound 14u, 2-(4-(4-chlorophenylsulfonamido)-1-hydroxynaphthalen-2-ylthio)propanoic acid] | – | 8.57 ± 0.67 | decrease of proteasome inhibition activity relative to comparator compound [2]: ~2 fold
25 | CC(Sc1cc(NS(=O)(=O)c2ccc3ccccc3c2)c2ccccc2c1O)C(=O)O (stereo not shown) [Compound 14v, 2-(1-hydroxy-4-(naphthalene-2-sulfonamido)naphthalen-2-ylthio)propanoic acid] | – | 9.11 ± 0.47 | decrease of proteasome inhibition activity relative to comparator compound [2]: ~2 fold
